Assay results: patent publication US10941152B2, “Pyrazole compounds as modulators of FSHR and uses thereof” (TOCOPHERX, INC., priority 2014, dated 2021)

Tests used:
[1] = biological target: T1, follicle-stimulating hormone (FSH) receptor (Rattus norvegicus, UniProt P20395); assay: Rat granulosa EC50 FSH (Assay B); assay type: cell-based
T1 construct: endogenous in cells; host or cells: rat granulosa cells
T1 sequence (P20395 18-692): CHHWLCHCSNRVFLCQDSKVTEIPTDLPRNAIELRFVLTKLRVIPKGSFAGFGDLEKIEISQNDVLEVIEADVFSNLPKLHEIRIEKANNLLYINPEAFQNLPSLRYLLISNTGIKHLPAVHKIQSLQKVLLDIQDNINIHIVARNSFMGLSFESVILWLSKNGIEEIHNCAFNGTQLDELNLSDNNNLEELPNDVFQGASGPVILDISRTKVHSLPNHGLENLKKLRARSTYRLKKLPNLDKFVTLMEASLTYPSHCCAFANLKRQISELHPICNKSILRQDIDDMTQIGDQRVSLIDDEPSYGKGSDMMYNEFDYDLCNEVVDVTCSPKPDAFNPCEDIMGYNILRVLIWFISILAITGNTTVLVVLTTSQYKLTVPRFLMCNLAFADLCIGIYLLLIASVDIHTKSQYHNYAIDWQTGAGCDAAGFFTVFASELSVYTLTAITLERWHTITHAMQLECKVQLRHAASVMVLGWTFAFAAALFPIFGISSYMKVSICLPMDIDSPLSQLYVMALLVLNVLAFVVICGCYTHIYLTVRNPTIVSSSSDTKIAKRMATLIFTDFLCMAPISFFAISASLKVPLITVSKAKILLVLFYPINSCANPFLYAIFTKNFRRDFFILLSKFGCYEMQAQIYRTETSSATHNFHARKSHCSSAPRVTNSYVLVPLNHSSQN
Procedure: Example 25. Rat granulosa EC50 FSH (Assay B)
The assay was performed pursuant to the teaching of Yanofsky et al. (2006) Allosteric activation of the follicle-stimulating hormone (FSH) receptor by selective, nonpeptide agonists (JBC 281(19): 13226-13233, which is incorporated by reference in the disclosure of the invention).

FSHR = biological target: T2, FSHR (Homo sapiens, UniProt P23945); assay: EC50 of cyclic AMP production in CHO FSHR cells + EC20 FSH (Assay A); assay type: cell-based; settings: cyclic AMP production in CHO FSHR cells + EC20 FSH (0.265 pM), HTRF
T2 construct: expressed in transfected cells; host or cells: CHO (Cho-FSHR-LUC-1-1-43)
T2 sequence (P23945 18-695): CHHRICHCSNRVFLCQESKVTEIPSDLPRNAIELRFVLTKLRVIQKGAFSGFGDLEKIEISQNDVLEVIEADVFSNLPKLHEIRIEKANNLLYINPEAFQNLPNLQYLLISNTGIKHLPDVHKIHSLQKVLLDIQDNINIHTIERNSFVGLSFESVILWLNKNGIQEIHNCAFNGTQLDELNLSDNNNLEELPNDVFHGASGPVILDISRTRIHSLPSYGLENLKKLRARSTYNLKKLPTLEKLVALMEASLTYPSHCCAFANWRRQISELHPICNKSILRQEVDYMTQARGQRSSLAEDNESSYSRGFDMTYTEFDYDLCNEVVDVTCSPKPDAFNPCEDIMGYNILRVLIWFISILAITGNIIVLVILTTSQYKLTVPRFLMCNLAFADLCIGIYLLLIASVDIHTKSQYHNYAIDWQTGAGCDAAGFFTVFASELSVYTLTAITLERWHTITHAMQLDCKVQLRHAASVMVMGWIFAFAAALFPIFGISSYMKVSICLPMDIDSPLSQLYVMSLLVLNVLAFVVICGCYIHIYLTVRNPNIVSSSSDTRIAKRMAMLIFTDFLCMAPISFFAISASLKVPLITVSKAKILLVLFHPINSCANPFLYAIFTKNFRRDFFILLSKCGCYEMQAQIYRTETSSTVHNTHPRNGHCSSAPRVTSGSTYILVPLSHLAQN
How it was run: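 cAMP was detected by HTRF as the 665/620 nm ratio. The CHO-FSHR cells had first been exposed for 1 h at 37° C to test compound together with 0.265 pM FSH (EC20) and 200 μM IBMX. Responses are given as percent of the FSH standard maximum.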

Row | Compound | EC50 [1] [µM] | EC50 (FSHR) [µM]
1 | COc1cc(Cl)cc(-n2nc(C(=O)N3CCOCC3(C)C)c3c2-c2cc(-c4ccn(C)n4)c(OC)cc2OC3)c1 [Compound 33, (1-(3-chloro-5-methoxyphenyl)-7-methoxy-8-(1-methyl-1H-pyrazol-3-yl)-1,4-dihydrochromeno[4,3-c]pyrazol-3-yl)(3,3-dimethylmorpholino)methanone] | 0.01 to 0.1 | < 0.01
2 | COc1cc(C(N)=O)cc(-c2cc3c(cc2OC)OCc2c(C(=O)N(C)C(C)(C)C)nn(-c4cc(Cl)cc(Cl)c4)c2-3)n1 [Compound 115, N-tert-butyl-8-(4-carbamoyl-6-methoxypyridin-2-yl)-1-(3,5-dichlorophenyl)-7-methoxy-N-methyl-1,4-dihydrochromeno[4,3-c]pyrazole-3-carboxamide] | 0.101 to 0.5 | < 0.01
3 | COc1cc2c(cc1-c1cc(C(N)=O)ncc1F)-c1c(c(C(=O)N(C)C(C)(C)C#N)nn1-c1cc(F)cc(F)c1)CO2 [Compound 109, 8-(2-carbamoyl-5-fluoropyridin-4-yl)-N-(2-cyanopropan-2-yl)-1-(3,5-difluorophenyl)-7-methoxy-N-methyl-1,4-dihydrochromeno[4,3-c]pyrazole-3-carboxamide] | 0.01 to 0.1 | < 0.01
4 | COc1cc(F)cc(-n2nc(C(=O)N(C)C(C)(C)C)c3c2-c2cc(-c4cncc(C(N)=O)c4)c(OC)cc2OC3)c1 [Compound 166] | 0.101 to 0.5 | < 0.01
5 | COc1cc2c(cc1-c1nn(C)cc1Cl)-c1c(c(C(=O)N3CCOCC3(C)C)nn1-c1cc(F)cc(F)c1)CO2 [Compound 151] | 0.01 to 0.1 | < 0.01
6 | CCN(C(=O)c1nn(-c2cc(Cl)cc(Cl)c2)c2c1COc1cc(OC)c(-c3ccn(C)n3)cc1-2)S(=O)(=O)CC [Compound 188, 1-(3,5-dichlorophenyl)-N-ethyl-N-(ethylsulfonyl)-7-methoxy-8-(1-methyl-1H-pyrazol-3-yl)-1,4-dihydrochromeno[4,3-c]pyrazole-3-carboxamide] | 0.101 to 0.5 | < 0.01
7 | COc1cc2c(cc1-c1cccc(CO)c1F)-c1c(c(C(=O)N(C)C(C)(C)C)nn1-c1cc(Cl)cc(Cl)c1)CO2 [Compound 195, N-tert-butyl-1-(3,5-dichlorophenyl)-8-(2-fluoro-3-(hydroxymethyl)phenyl)-7-methoxy-N-methyl-1,4-dihydrochromeno[4,3-c]pyrazole-3-carboxamide] | 0.01 to 0.1 | 0.01 to 0.1
8 | COc1cc2c(cc1-c1cc(C)cnc1F)-c1c(c(C(=O)N(C)C(C)(C)C)nn1-c1ccsc1)CO2 [Compound 62, N-tert-butyl-8-(2-fluoro-5-methylpyridin-3-yl)-7-methoxy-N-methyl-1-(thiophen-3-yl)-1,4-dihydrochromeno[4,3-c]pyrazole-3-carboxamide] | 0.01 to 0.1 | < 0.01
9 | COc1cc2c(cc1-c1ccn(C)n1)-c1c(c(C(=O)N(C)C(C)(C)C#N)nn1-c1cc(F)cc(F)c1)CO2 [Compound 106, N-(2-cyanopropan-2-yl)-1-(3,5-difluorophenyl)-7-methoxy-N-methyl-8-(1-methyl-1H-pyrazol-3-yl)-1,4-dihydrochromeno[4,3-c]pyrazole-3-carboxamide] | > 0.5 | 0.01 to 0.1
10 | COc1cc2c(cc1-c1ccn(C)n1)-c1c(c(C(=O)N(CCO)C(C)(C)C)nn1-c1cc(Cl)cc(Cl)c1)CO2 [Compound 122, N-tert-butyl-1-(3,5-dichlorophenyl)-N-(2-hydroxyethyl)-7-methoxy-8-(1-methyl-1H-pyrazol-3-yl)-1,4-dihydrochromeno[4,3-c]pyrazole-3-carboxamide] | 0.101 to 0.5 | 0.01 to 0.1
11 | COc1cc2c(cc1OC(C)CO)-c1c(c(C(=O)N(C)C(C)(C)C)nn1-c1ccsc1)CO2 (stereo not drawn) [Compound 193, N-tert-butyl-8-(1-hydroxypropan-2-yloxy)-7-methoxy-N-methyl-1-(thiophen-3-yl)-1,4-dihydrochromeno[4,3-c]pyrazole-3-carboxamide] | 0.101 to 0.5 | 0.01 to 0.1
12 | COc1cc2c(cc1-c1cccnc1F)-c1c(c(C(=O)N(CCO)C(C)(C)C)nn1-c1cc(Cl)cc(Cl)c1)CO2 [Compound 123, N-tert-butyl-1-(3,5-dichlorophenyl)-8-(2-fluoropyridin-3-yl)-N-(2-hydroxyethyl)-7-methoxy-1,4-dihydrochromeno[4,3-c]pyrazole-3-carboxamide] | 0.01 to 0.1 | < 0.01
13 | COc1cc2c(cc1-c1ccn(C)n1)-c1c(c(C(=O)N3CC[S+]([O-])CC3(C)C)nn1-c1ccsc1)CO2 (stereo not drawn) [Compound 56, (1-(thiophen-3-yl)-7-methoxy-8-(1-methyl-1H-pyrazol-3-yl)-1,4-dihydrochromeno[4,3-c]pyrazol-3-yl)(S-oxo-3,3-dimethylthiomorpholino)methanone] | 0.101 to 0.5 | 0.01 to 0.1
14 | COc1cc2c(cc1-c1nn(C)cc1C#N)-c1c(c(C(=O)N3CCOCC3(C)C)nn1-c1cc(F)cc(F)c1)CO2 [Compound 150] | 0.01 to 0.1 | < 0.01
15 | COc1cc2c(cc1-c1cc(C(N)=O)ccn1)-c1c(c(C(=O)N(C)C(C)(C)C#N)nn1-c1cc(Cl)cc(Cl)c1)CO2 [Compound 120, 8-(4-carbamoylpyridin-2-yl)-N-(2-cyanopropan-2-yl)-1-(3,5-dichlorophenyl)-7-methoxy-N-methyl-1,4-dihydrochromeno[4,3-c]pyrazole-3-carboxamide] | 0.01 to 0.1 | < 0.01
16 | COc1cc(Cl)cc(-n2nc(C(=O)N(C)C(C)(C)C)c3c2-c2cc(-c4cnn(CC(=O)O)c4)c(OC)cc2OC3)c1 [Compound 85, 2-(4-(3-(tert-butyl(methyl)carbamoyl)-1-(3-chloro-5-methoxyphenyl)-7-methoxy-1,4-dihydrochromeno[4,3-c]pyrazol-8-yl)-1H-pyrazol-1-yl)acetic acid] | > 0.5 | 0.01 to 0.1
17 | COc1cc(F)cc(-n2nc(C(=O)N3CCOCC3(C)C)c3c2-c2cc(-c4ccn(C)n4)c(OC)cc2OC3)c1 [Compound 53, (3,3-dimethylmorpholino)(1-(3-fluoro-5-methoxyphenyl)-7-methoxy-8-(1-methyl-1H-pyrazol-3-yl)-1,4-dihydrochromeno[4,3-c]pyrazol-3-yl)methanone] | 0.101 to 0.5 | 0.01 to 0.1
18 | COc1cc2c(cc1-c1cncc(C(N)=O)c1)-c1c(c(C(=O)N(C)C(C)(C)C)nn1-c1cc(Cl)cc(Cl)c1)CO2 [Compound 171] | < 0.01 | < 0.01
19 | COc1cc(OC)cc(-n2nc(C(=O)N(C)C(C)(C)CCO)c3c2-c2cc(-c4ccn(C)n4)c(OC)cc2OC3)c1 [Compound 134, 1-(3,5-dimethoxyphenyl)-N-(4-hydroxy-2-methylbutan-2-yl)-7-methoxy-N-methyl-8-(1-methyl-1H-pyrazol-3-yl)-1,4-dihydrochromeno[4,3-c]pyrazole-3-carboxamide] | > 0.5 | 0.01 to 0.1
20 | COc1cc2c(cc1-c1cnn(CC(=O)O)c1)-c1c(c(C(=O)N(C)C(C)(C)C)nn1-c1cc(F)cc(F)c1)CO2 [Compound 87, 2-(4-(3-(tert-butyl(methyl)carbamoyl)-1-(3,5-difluorophenyl)-7-methoxy-1,4-dihydrochromeno[4,3-c]pyrazol-8-yl)-1H-pyrazol-1-yl)acetic acid] | 0.101 to 0.5 | 0.01 to 0.1
21 | COc1cc2c(cc1-c1cncc(C(N)=O)c1)-c1c(c(C(=O)N(C)C(C)(C)C)nn1-c1cc(F)cc(F)c1)CO2 [Compound 161] | 0.01 to 0.1 | < 0.01
